Converted amounts (≈) assume the structure as drawn.
Legend:
Type in all cases: cell-based
[1] = test system: Candida albicans ATCC 10 231; test: Inhibition series in liquid nutrient medium, tube test CII1 (DGHM guidelines); conditions: ATCC10, read-out: antimikrobielle Wirkung (Hemmreihen)
Description: (§1) Die antimikrobielle Wirkung der vorstehenden Imidazolin-Acetate geht aus folgender Tabelle hervor:
(§2) Die Prüfung erfolgte in Hemmreihen in flüssigem Nährsubstrat gegenüber den genannten Keimen im Röhrchentest CII1 gemäß Richtlinien der DGHM für chemische Desinfektionsmittel.

[2] = test system: Staphylococcus aureus SG 511; test: as above; conditions: SG511, read-out: antimikrobielle Wirkung (Hemmreihen)
Description: as §1, §2

Candida albicans = test: Microbicidal action in suspension test; conditions: inoculum 1,9 x 10^8 /ml diluted 1:100, room temperature, in H2O
Protocol: (§3) 55,0 g (0,26 Mol) des Imidazolins Nr. 6 der Tabelle 1 wurden in 30 ml Isopropanol gelöst und mit 32,6 g (0,26 Mol) Benzylchlorid in 3 Stunden bei 80'- 85 °C quaterniert. Danach wurde das Isopropanol abdestilliert und das Produkt mit Wasser auf 30 % Aktivsubstanz eingestellt. Die Ergebnisse der Prüfung der mikrobiziden Wirkung einiger Imidazoliniumsalze der Tabelle 2 finden sich in der nachfolgenden Tabelle 3: […]

Escherichia coli = test: Microbicidal action in suspension test; conditions: inoculum 3,7 x 10^8 /ml diluted 1:100, room temperature, in H2O
Protocol: as §3

Pseudomonas aeruginosa = test: Microbicidal action in suspension test; conditions: inoculum 1,6 x 10^8 /ml diluted 1:100, room temperature, in H2O
Protocol: as §3

Staphylococcus aureus = test: Microbicidal action in suspension test; conditions: inoculum 3,0 x 10^8 /ml diluted 1:100, room temperature, in H2O
Protocol: as §3

## CCCCCCCCCCC(O)CN1CCN=C1CCCCCCCCC (stereo not shown) [Imidazolin-Nr.4-acetat]
[1]
  MIC: 50 mg/L (≈ 131 µM)
[2]
  MIC: < 10 mg/L

## CCCCCCCCCC1=[N+](C)CCN1CC(O)CCCCCCCC (stereo not shown) [Imidazoliniumsalz 1]
Candida albicans; 50 ppm active
  Abtötungszeit in Minuten: 40 Minuten
Candida albicans; 100 ppm active
  Abtötungszeit in Minuten: 10 Minuten
Escherichia coli; 10 ppm active
  Abtötungszeit in Minuten: x (x = > 120 Minuten)
Escherichia coli; 50 ppm active
  Abtötungszeit in Minuten: 20 Minuten
Escherichia coli; 100 ppm active
  Abtötungszeit in Minuten: ≤ 2,5 Minuten
Pseudomonas aeruginosa; 50 ppm active
  Abtötungszeit in Minuten: 20 Minuten
Pseudomonas aeruginosa; 100 ppm active
  Abtötungszeit in Minuten: 10 Minuten
Staphylococcus aureus; 10 ppm active
  Abtötungszeit in Minuten: 60 Minuten
Staphylococcus aureus; 50 ppm active
  Abtötungszeit in Minuten: ≤ 2,5 Minuten
Staphylococcus aureus; 100 ppm active
  Abtötungszeit in Minuten: ≤ 2,5 Minuten

## CCCCCCCCCCC(O)CN1CC[N+](C)=C1CCCCCCC (stereo not shown) [Imidazoliniumsalz 3]
Candida albicans; 10 ppm active
  Abtötungszeit in Minuten: 20 Minuten
Candida albicans; 50 ppm active
  Abtötungszeit in Minuten: 5 Minuten
Escherichia coli; 10 ppm active
  Abtötungszeit in Minuten: 5 Minuten
Escherichia coli; 50 ppm active
  Abtötungszeit in Minuten: ≤ 2,5 Minuten
Pseudomonas aeruginosa; 10 ppm active
  Abtötungszeit in Minuten: 60 Minuten
Pseudomonas aeruginosa; 50 ppm active
  Abtötungszeit in Minuten: 10 Minuten
Staphylococcus aureus; 10 ppm active
  Abtötungszeit in Minuten: ≤ 2,5 Minuten
Staphylococcus aureus; 50 ppm active
  Abtötungszeit in Minuten: ≤ 2,5 Minuten

## CCCCCCCCCCC(O)CN1CC[N+](C)=C1CCCCCCCCC (stereo not shown) [Imidazoliniumsalz 4]
Candida albicans; 10 ppm active
  Abtötungszeit in Minuten: 20 Minuten
Candida albicans; 50 ppm active
  Abtötungszeit in Minuten: 20 Minuten
Escherichia coli; 10 ppm active
  Abtötungszeit in Minuten: 60 Minuten
Escherichia coli; 50 ppm active
  Abtötungszeit in Minuten: 10 Minuten
Pseudomonas aeruginosa; 10 ppm active
  Abtötungszeit in Minuten: 10 Minuten
Pseudomonas aeruginosa; 50 ppm active
  Abtötungszeit in Minuten: 10 Minuten
Staphylococcus aureus; 10 ppm active
  Abtötungszeit in Minuten: 5 Minuten
Staphylococcus aureus; 50 ppm active
  Abtötungszeit in Minuten: 5 Minuten
